Consider one substance from US20050153304A1, “Multivariate profiling of complex biological regulatory pathways” (Government of the USA, as represented by the secretary, …, priority 2003, published 2005).

The test system of one assay is NF-kappa B pathway. Put plainly: Luciferase reporter transfection in mitogen-stimulated Jurkat T-cells, principal component analysis of mitogen profiles. It counts as cell-based, human. The note with it: co-stimulation with anti-CD28, FIG. 4 and FIG. 6. On the procedure: (§1) A human acute lymphoblastic T-cell leukemia cell line (Jurkat) was individually electroporated with 5 ug of a luciferase reporter plasmids driven by the interleukin 2 (IL-2) promoter, the NFAT element of the IL-2 promoter, the CD28RE-AP1 element of the IL-2 promoter, a consensus AP-1 element, a consensus NF-kappa B element, a consensus CRE element and the co-transfection of a Gal4 binding site or upstream activation sequence (UAS) driving a luciferase reporter in combination with either a full length Gal4-p300 fusion (FL) or a N-terminal domain fusion of p300 (amino acids 1-743). Electroporation was performed in a 96 well format with a BTX 96-well gold electrode. Cells were electroporated at 10 millions cells per well with each experiment repeated in triplicates. Following electroporation cells were stimulated with various combination of T-cell mitogens (see Table 1). Cells were harvested 5 hours after stimulation and assayed for luciferase activity by a 96 well luminometer. Data were normalized first for fold activation for each experiment and then inputted into an activation matrix where the data were normalized to percent maximum stimulation. […]
(In general: In a reporter assay the amount or activity of a reporter protein is the signal.)

In assay [1] the test system is Jurkat T-cells, 8 promoter elements. Briefly: Principal component analysis of vector differences between mitogen profiles in the absence and presence of drug (8 promoter elements). In kind it is cell-based, human. The note with it: subtraction vectors versus control mitogen profiles, FIG. 5. How it is done: The mitogen activation profiles under control conditions shown in red FIG. 4 were used to calculate subtraction vectors for each profile in the presence of a drug treatment. These vectors were then analyzed by PCA to show similarities and differences in targeting.
as §1, with “luminometer.” for “luminometer. Data were normalized first for fold activation for each experiment and then inputted into an activation matrix where the data were normalized to percent maximum stimulation.”

Regarding “IGF-1: insulin-like growth factor one, a peptide growth factor”, the “effect on NF-kappa B pathway in activated T-cells” value in the assay on NF-kappa B pathway is on record as “synergies with anti-CD28 stimulation in activated T-cells to upregulate the NF-kappa B pathway”. In assay [1], the “drug targeting profile (similarity of pathways targeted)” value is reported as “appear to target the same pathway”.
